Reference: PubChem BioAssay AID1902 (Broad Institute, 2009)
Active and inactive are the calls of the source.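 The calls were made as follows: active = EC50 no more than a set limit of log units above the highest dose; inactive = the rest.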

The compounds below were run against S. pyogenes SKKanGAS, kanamycin survival, BacTiterGlo, 6 h (assay: S. pyogenes SKKanGAS kanamycin growth inhibitors – SKKanGAS strain, luminescence, dose confirmation, streptokinase promoter inhibitor project, dose response (AID 1902);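 also: lower survival reflects blocked streptokinase promoter driving kanamycin resistance gene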).

SMILES	EC50
Cc1ccccc1-c1cc(C(=O)Nc2sc(C(=O)OC(C)C)c(C)c2C#N)c2ccccc2n1	5.49 µM
c1ccc2c(-c3c[nH]c4ccccc34)c3ccccc3nc2c1	10.9 µM
O=S(=O)(Nc1cccc2c1CCCC2)c1ccc(Cl)cc1	2.92 µM
Cc1cccc(OC(=O)c2sc3ncn(C)c(=O)c3c2C)c1	4.09 µM
COc1ccc(C(=O)Nc2cccc(-c3ccc(N4CCOCC4)nn3)c2)cc1	> 15 µM (inactive)
COc1ccc2cc(C(=O)/C=C/c3cc(OC)c(O)c(OC)c3)ccc2c1	6.68 µM
CC(C)CCn1c(=O)c(C(=O)N/N=C/c2cccc(F)c2)c(O)c2ccccc21	1.17 µM
O=C(/C=C/c1ccccc1)NC(NC(=S)Nc1cccc(Cl)c1)C(Cl)(Cl)Cl (configuration not stated)	1.85 µM
CCCCCC(=O)NC(=S)NC1C2CC3CC(C2)CC1C3 (configuration not stated)	3.83 µM
CC12CCC(C(=O)Nc3cccc(Cl)c3Cl)([C@H](Br)C1=O)C2(C)C (some centres not stated)	> 15 µM (inactive)
COc1ccc(S(=O)(=O)N[C@@H](C)C(=O)OCC(=O)Nc2cc3oc4ccccc4c3cc2OC)cc1	1.42 µM
CCc1cccc2c(C(=O)COC(=O)c3ccc([N+](=O)[O-])s3)c[nH]c12	0.735 µM
COc1ccc(/C=C/c2ccc3cccc(O)c3n2)c(OC)c1OC	3.27 µM
CC1CCCCC1NC(=O)CCn1ccc2cc(S(=O)(=O)N3CCCC3)ccc21 (configuration not stated)	> 15 µM (inactive)
Cc1cc(SCC(=O)N/N=C/c2ccc(O)c(O)c2O)c(C)cc1Br	3.11 µM
O=C(NNC(=S)NC(=O)c1ccccc1)c1ccc(O)cc1	2.26 µM
Cc1c(C)n(Cc2ccc(F)cc2)c2ccc(C(=O)N3CCN(c4ccccn4)CC3)cc12	6.11 µM
CC1(C)S[C@@H]2[C@H](NC(=O)C(NC(=O)N3CCNC3=O)c3ccccc3)C(=O)N2[C@H]1C(=O)O (some centres not stated)	< 0.06 µM
CCCCCCC(=O)N/N=C/c1c(O)n(C(C)CC)c(=S)[nH]c1=O (configuration not stated)	3.22 µM
CCCOC(=O)c1ccc(Oc2c(-c3ccc(OCC)cc3O)n[nH]c2C)cc1	2.02 µM
CCCCN(C)S(=O)(=O)c1ccc(C(=O)Nc2nnc(-c3cccs3)o2)cc1	0.941 µM
O=C(NC(NC(=S)Nc1cccc(Cl)c1)C(Cl)(Cl)Cl)OCc1ccccc1 (configuration not stated)	1.78 µM

SMILES	EC50
Cc1ccc(OCC(=O)NNC(=S)NC(=O)c2ccc(Br)o2)c(C)c1	< 0.06 µM
Cc1cccc(/C=c2\s/c(=C\C(=O)C(C)(C)C)[nH]c2=O)c1	2.34 µM
O=C1c2cccc3cccc(c23)C(=O)N1CC1CCN(CC(O)COc2ccc3ccccc3c2)CC1 (configuration not stated)	6.84 µM
O=c1c([N+](=O)[O-])cccn1Cc1ccc(F)cc1Cl	3.38 µM
Cc1cc(C)c2nc(SCCc3ccccc3)nc(C)c2c1	5.85 µM
CCOC(=O)c1c2c(n(C)c1COC)C(=O)C(=O)c1ccc(Br)cc1-2	3.66 µM
CC1CCCN(S(=O)(=O)c2ccc(C(=O)Nc3nnc(C4CC4)o3)cc2)C1 (configuration not stated)	3.3 µM
CC(/C=C1\SC(=S)N(NS(=O)(=O)c2ccc(C)cc2)C1=O)=C\c1ccccc1	2.88 µM
CC1(C)N=C(N)N=C(N)N1c1ccc(Oc2ccc(Cl)cc2)c(Cl)c1	< 0.06 µM
N#Cc1c(-c2ccccc2)c(-c2ccccc2)nn(CC(=O)NNC(=O)Nc2ccc(Cl)c(Cl)c2)c1=O	5.3 µM
NCCS(=O)(=O)NC1CCCCC1	> 15 µM (inactive)
Cc1onc(-c2c(Cl)cccc2Cl)c1C(=O)NC1C(=O)N2C1SC(C)(C)C2C(=O)O (configuration not stated)	< 0.06 µM
CCN(CC)c1ccc(-n2cc3c(=O)n(C)c(=O)n(C)c3c2)cc1	3.43 µM
CSc1ccc(/C=C2\CCn3c2nc2cc(C(=O)O)ccc2c3=O)cc1	6.15 µM
CCCCC(CC)CN1C(=O)/C(=C/c2ccncc2)SC1=S (configuration not stated)	2.83 µM
Cc1cccc2sc(NNC(=O)c3ccc(S(=O)(=O)N4CC(C)CC(C)C4)cc3)nc12 (configuration not stated)	0.212 µM
O=c1cc(N2CCCCC2)c(-c2ccccc2)nn1Cc1c(Cl)cccc1Cl	4.69 µM
CCOc1cccc(/C=N/Nc2ccc(S(=O)(=O)N(CC)CC)cn2)c1O	2.94 µM
COc1ccc2nc(Nc3nc(C)c(C(C)=O)s3)sc2c1	6.64 µM
C/C(=N\Nc1nc(N2CCCCCC2)nc(N2CCCCCC2)n1)c1ccccc1	3.69 µM
Cc1cccc(/C=C2/S/C(=N/N=C3\CC4CCC3(C)C4(C)C)NC2=O)c1 (configuration not stated)	1.19 µM
CC(C)COCc1ccc(O)c2ncccc12	1.02 µM

SMILES	EC50
Nc1sc(-c2ccccc2)cc1C(=O)N/N=C/c1ccc(Cl)cc1	5.73 µM
Cc1onc(-c2ccccc2)c1C(=O)NNC(=S)NC(=O)c1ccc(Cl)cc1Cl	0.615 µM
Cc1ccccc1NC1=C/C(=N\S(=O)(=O)c2cccs2)c2ccccc2C1=O	1.44 µM
O=C(Nc1ccc(Br)cc1C(=O)O)c1ccc2c(c1)C(=O)N(Cc1ccccc1)C2=O	1.15 µM
Clc1ccccc1CN(Cc1ccccc1)c1ncnc2nc[nH]c12	3.85 µM
O=C(N/N=C/c1c(O)n(C2CCCCC2)c(=S)[nH]c1=O)c1ccccc1	0.659 µM
C/C(=N\N=C(/N)SC1CC(=O)N(c2ccc(Br)cc2)C1=O)c1cccs1 (configuration not stated)	5.03 µM
Cc1ccc(-c2cc(C(F)F)nc(N3CCC(C)CC3)n2)cc1	5.48 µM
CC(C)Nc1nc(NC(C)C)nc(N(C)N)n1	3.07 µM
Cc1ccc(N=Nc2ccc(O)c3ncccc23)cc1	0.098 µM
O=C(c1ccccc1Cl)N1CCN(S(=O)(=O)c2cccs2)CC1	> 15 µM (inactive)
Cc1csc(NC(=O)c2c(O)c3c(n(CC(C)C)c2=O)CCCC3)n1	10.9 µM
COc1ccc(OC)c(CCNC(=O)C(=O)Nc2ccc3nc4n(c(=O)c3c2)CCCCC4)c1	10.1 µM
CCOc1ccc(C)cc1S(=O)(=O)NC1CCCCCC1	> 15 µM (inactive)
CCN(CC)c1ccc(NC(=O)c2c(C)noc2C)cc1	> 15 µM (inactive)
O=C(Cc1csc(Nc2nc(=S)[nH]c3ccccc23)n1)NCCCN1CCN(c2cccc(Cl)c2)CC1	6.12 µM
COc1ccc(C(=O)NNC(=S)NC(=O)c2ccc(F)cc2)cc1Br	0.127 µM
Nc1nc2ccccc2n1/N=C/c1ccc(-c2ccccc2)o1	1.96 µM
CC1CCC(C(=O)c2c(O)c3ccccc3oc2=O)CC1 (configuration not stated)	5.13 µM
CC1CCN(c2nc(N3CCCCC3)nc(N3CCCCC3)n2)CC1	3.02 µM
CCOC(=O)C1CCN(C(=O)c2ccc3c(=O)n4nc(Nc5cc(C)ccc5C)sc4nc3c2)CC1	8.2 µM
CCOc1ccc(-c2nnc(NC(=O)c3ccc(OCC(C)C)c(OC)c3)o2)cc1	0.347 µM

SMILES	EC50
O=C(/C=C/c1ccccc1Cl)c1ccccc(=O)c1O	0.824 µM
CCCCCC/C(=N/O)c1ccccn1	15.4 µM
Cc1cccc(CSc2nc(N)c(C#N)c(-c3cccs3)c2C#N)c1	4.77 µM
CCc1nc(N)nc(N)c1-c1ccc(Cl)cc1	3.99 µM
COc1ccc(CCNC(=O)c2cc(-c3ccc(Cl)c(Cl)c3)oc2C)cc1	12.2 µM
Cn1nnc(-c2ccc(OCc3ccccc3F)cc2)n1	9.46 µM
CS(=O)(=O)Nc1ccc(C2=NN(C(=O)C3CCCCC3)C(c3cccs3)C2)cc1 (configuration not stated)	3.94 µM
CCCC(=O)NC(c1ccc2c(c1)OCO2)c1cc(Cl)c2cccnc2c1O (configuration not stated)	1.17 µM
O=C(c1ccc2c3n(nc2c1)-c1ccccc1CO3)N1CCCCC1	9.38 µM
Cc1cc2c(cc1C)CSC(c1c(O)ccc3ccccc13)SC2	2.08 µM
CCOc1ccc(NS(=O)(=O)c2cc(NC(=O)c3ccc(C)cc3)ccc2Cl)cc1	3.72 µM
CC[C@H]1OC(=O)[C@H](C)[C@@H](O[C@H]2C[C@@](C)(OC)[C@@H](O)[C@H](C)O2)[C@H](C)[C@@H](O[C@@H]2O[C@H](C)C[C@H](N(C)C)[C@H]2O)[C@](C)(O)C[C@@H](C)C(=NOCOCCOC)[C@H](C)[C@@H](O)[C@]1(C)O	< 0.06 µM
O=C(CN(c1ccc(Cl)c(C(F)(F)F)c1)S(=O)(=O)c1ccccc1)N/N=C/c1cccc2c1OCCO2	13.4 µM
CCCC1CC(C(=O)NC(C(C)Cl)C2OC(SC)C(O)C(O)C2O)N(C)C1 (configuration not stated)	< 0.06 µM
O=C(Nc1cccc(Cl)c1)Nc1csc([N+](=O)[O-])c1	8.11 µM
O=C(Nc1nnc(SCc2c(Cl)cccc2Cl)s1)C1CC(=O)N(c2ccc3c(c2)OCCO3)C1 (configuration not stated)	9.74 µM
N#CC(C(=O)C12CC3CC(CC(C3)C1)C2)c1nc2ccccc2[nH]1 (configuration not stated)	3.23 µM
CCN=C1S/C(=C\c2ccc(-c3cccc(C(=O)O)c3)o2)C(=O)N1CC	3.4 µM
CC(=O)Nc1ccc(C2C(=O)c3ccccc3C2=O)cc1	> 15 µM (inactive)
O=C(N/N=C/c1ccccn1)c1ccc(Cl)c(Cl)c1	6.85 µM
COc1cc(/C=N/Nc2nc3ccccc3s2)cc([N+](=O)[O-])c1O	8.93 µM
CC(C)(C)c1ccc(O)c(N=Cc2c(O)ccc3ccccc23)c1	5.12 µM

SMILES	EC50
Clc1ccc(-c2n[nH]c3c2CCC3)c(Cl)c1	0.975 µM
Cc1cccc(NS(=O)(=O)c2ccc(C3CCCCC3)cc2)c1	4.82 µM
c1ccc(-c2nnc(-c3ccccn3)nc2NC2CCCCC2)cc1	2.95 µM
Cn1c(SCC(=O)NC2(C#N)CCCCC2)nnc1-c1cccnc1	> 15 µM (inactive)
CCn1cc(C(=O)O)c(=O)c2cc(F)c(N3CCN(S(=O)(=O)c4ccc5c(c4)OCCO5)CC3)cc21	2.9 µM
Oc1ccccc1C1=NN(c2ccccc2)C(c2ccccc2)C1 (configuration not stated)	2.76 µM
Cc1c(C(=O)Nc2ccc3c(c2)OCCO3)sc2nc(-c3ccccc3)cn12	2.52 µM
CN1C(=O)/C(=C/c2ccccc2Cl)Sc2ccc(C(=O)NCc3cccnc3)cc21	4.69 µM
COc1ccccc1N1CCN(C(=O)/C=C/c2ccc(C)cc2)CC1	> 15 µM (inactive)
CCOC(=O)c1ccc(Nc2nc(C)nc3c2nnn3Cc2ccccc2)cc1	6.69 µM
N#Cc1ccccc1CN1C(=O)S/C(=C/c2cccn2-c2ccc(C(=O)O)cc2)C1=O	7.03 µM
CCCOc1ccc(C(=O)NNC(=S)NC(=O)c2ccccc2)cc1	0.217 µM
COc1ccc(-c2sc3ccccc3c2C#CC2(O)CCCCC2)cc1	4.58 µM
Cc1cccc(C)c1OCC(=O)Nc1ccccc1N1CCCCC1	2.78 µM
O=C(NC12CC3CC(CC(C3)C1)C2)c1ccc(-c2ccc(Br)cc2)o1	11 µM
CCOC(=O)c1ccc(NC(=O)c2sc3nc4n(c(=O)c3c2C)CCC4)cc1	1.99 µM
O=C(CCc1ccccc1)NNC(=S)NC(=O)c1ccc(Cl)cc1	0.203 µM
COc1cc(OC)cc(C(=O)Nc2nc3ccccc3[nH]2)c1	12.8 µM
COc1ccccc1C(=O)NNC(=S)NC(=O)c1sc2ccccc2c1Cl	< 0.06 µM
